# Measurements from US20040029208A1, “Assay method and kit for testing biological material for exposure to stress using biomarkers” (priority 2000, published 2004).
# Legend:
# Assay type in all cases: in vivo
# [1] = system: Plantágo lanceoláta; experiment: TLC plant biomarker pattern after herbicide spraying (greenhouse)
# Procedure: (§1) The experiments were performed in the green-house at the National Environmental Research Institute, Silkeborg, Denmark. All the seeds needed light to germinate, and were sown at the soil surface in individual 11 cm pots. The soil used during the experiments contained: (SM Growing Mould (Growing medium by special soil (sphagnum) added clay granulate), 0-30 mm; grade of turnover 55-75; added per m^3: 3 kg lime (white chalk), 1.5 kg dolit chalk, 40 kg clay granulate; Fertilizer added granulate: NO3-N: 55.0 g; NH4-N: 65.0 g; P: 106.6 g; K: 224.0 g; Mg: 22 g; Micro nutrients added in chelate form, Mo in uorganic form: B-Boron: 1 g; Cu-copper: 6 g; Mn-Manganese: 3 g; Zinc-Zn: 3 g: Fe-iron: 6 g; Mo- molybdenum: 1.4 g).
# (§2) During the experiments plants were watered from below, and the temperature in the green-house was maintained between 15° C. and 25° C. with variations due to external weather, and the photoperiod was 16th daylight. The green-house is divided into different units, which allowed for the separate maintenance of the control plants from the sprayed plants to avoid undesirable effects due to vapour drift.
# (§3) Glyphosate (Roundup Bio (360 g L^−1) was supplied by Monsanto Denmark A/S. Recommended field dose=1,44 kg a.i. ha^−1. In all the experiments, an automatic sprayer (designed in Denmark by Jens Kristensen 1994) was used where the herbicide application is achieved by moving boom equipment with two ordinary hydraulic flat fan nozzles (Hardi 4110-16). Two pots per spray event were placed in the middle of the spray chamber at 50 cm distance from the nozzle, delivering 200 L of water per-hectare with a desired herbicide concentration (working pressure 2 bars; speed of spray boom=4.7 km h^−1). The spraying was performed starting with the lowest concentration first, progressing towards the highest concentration. Between each herbicide, the sprayer was thoroughly rinsed several times with water. The control plants were sprayed with water.
# (§4) The fresh plant material was pressed using a hand press. The extract was immediately centrifuged. (3000 rpm) for 10 minutes. The supernatant was used for analysis. The extracts were kept cool or right above 0° C. during the test to avoid decomposition of biomarkers.
# (§5) Freeze-dried plant material was crushed and 250 mg was extracted with 5.00 ml 75% ethanol in an ultrasonic bath for 2 hours. The temperature was kept <0° C. (using ice) during the extraction to avoid decomposition of biomarkers. The extract was centrifuged (3000 rpm) for 10 minutes. The supematant was used for analysis and were kept cool during the test to avoid decomposition of biomarkers.
# (§6) The two extracts (freshtfresh ethanol) were applicated immediately on a TLC plate (10 μl on both TLC-Plate types (see below) using cool air-drying. The 75% ethanolic extract was applicated 10 μl on Silica-gel TLC-plates and 5 μl on Cellulose TLC-plates (see below). The fresh/fresh ethanolic extractsare recommended to perform if fresh plant material are to be analysed (field-test). The freeze-dried or frozen plant material extraction Is recommended if the analysis are performed in the laboratory.
# (§7) TLC-System 1: HPTLC-Alufolie Silica Gel 60 F254, Merck 1.05548 (10×10 cm); 10 μl plant extracts plants exposed to glyphosate and control plants; eluted in n-butanol acetic acid: water (4:1:5) (upper phase after 5 minutes shaking). Derivatisation: Stock solution 1:50% sulfuric acid in 96% ethanol; Stock solution 2: 2% vanillin in absolut alcohol; Derivatisation-solvent, Fresh produced before us, stock solution 1 and stock solution 2 (1:10); Aftercare: 120° C. in 2-3 min. The plate is valuated visually. The system detects higher alcoholics, phenolic compounds, steroids and etheric oils (Stahl 1969), terpenoids, phenyl propanolds, phenolic compounds (Wagner etea. 1984) […]
# [2] = system: Anagallis arvensis; experiment: Visual effect rating (0-9) after herbicide spraying; details: at presence of TLC 7 biomarker
# Description: (§8) Four, eight, sixteen and thirty two days after spraying, visual effects on plants were noted before harvest, using the rating chart described in Hamil. et al. (1977) and Boutin et al. (1993); a rating of zero indicates full growth and vigour, and a rating of nine indicates no growth/mortality.
# (§9) The min. visual effect (VE) of the presence of plant biomarkers is rated as described by Hamil et al., (1977) and Boutin et al. (1993).
# [3] = system: Plantágo lanceoláta; experiment: as above
# Description: as §8, §9
# [4] = system: Centauréa cýanus; experiment: as above
# Description: as §8, §9
# [5] = system: Lólium perénne; experiment: as above
# Description: as §8, §9
# [6] = system: Anagallis arvensis; experiment: TLC plant biomarker pattern after herbicide spraying (greenhouse)
# Procedure: as §1, §2, §3, §4, §5, §6
# […] Derivatisation: Stock solution 1:50% sulfuric acid in 96% ethanol; Stock solution 2: 2% vanillin in absolut alcohol; Derivatisation-solvent, Fresh produced before us, stock solution 1 and stock solution 2 (1:10); Aftercare: 120° C. in 2-3 min. The plate is valuated visually. The system detects higher alcoholics, phenolic compounds, steroids and etheric oils (Stahl 1969), terpenoids, phenyl propanolds, phenolic compounds (Wagner etea. 1984)
# TLC-System 7: HPTLC-Alufolie Silica Gel 60 F2u, Merck 1.05548 (10×10 cm); 10 μl plant extracts plants exposed to glyphosate and control plants; eluted in n-butanol: acetic acid: water (4:1:5) (upper phase after 5 minutes shaking). Derivatisation: 0,5 g p-anisaldehyde diluted in 10 ml conc. acetic acid and 85 ml absolute alcohol is and 5 ml conc. sulfuric acid (added in the following row). The plate is heated to. […]
# [7] = system: Centauréa cýanus; experiment: as above
# [8] = system: Lólium perénne; experiment: as above
# [9] = system: Lólium perénne; experiment: as above; details: TLC 1 (non-specific compounds)
# Procedure: as §1, §2, §3, §4, §5, §6, §7
# [10] = at presence of TLC 4d biomarker
Molecule,Min. of label dose of herbicide with effect ([1]; TLC 2 (phenolic compounds)) [%],Min. of label dose of herbicide with effect ([1]; TLC 6 (lipids and terpens)) [%],Min. of label dose of herbicide with effect ([1]; TLC 4d (amino acids)) [%],Min. visual effect [2],Min. visual effect ([3]; at presence of TLC 2 biomarker),Min. visual effect ([3]; at presence of TLC 6 biomarker),Min. visual effect ([5]; at presence of TLC 7 biomarker),"Min. visual effect [5, 10]",Min. of label dose of herbicide with effect ([6]; TLC 7 (non-specific compounds)) [%],Min. of label dose of herbicide with effect ([7]; TLC 2 (phenolic compounds)) [%],Min. of label dose of herbicide with effect ([7]; TLC 7 (non-specific compounds)) [%],Min. of label dose of herbicide with effect ([7]; TLC 4d (amino acids)) [%],Min. of label dose of herbicide with effect ([8]; TLC 6 (lipids and terpens)) [%],Min. of label dose of herbicide with effect ([8]; TLC 7 (non-specific compounds)) [%],further results
COC(=O)c1ccccc1S(=O)(=O)NC(=O)Nc1nc(C)nc(OC)n1 [Metsulfuron methyl],1,10,1,1,0,2,0,0,1,1,1,1,10,10,Min. of label dose of herbicide with effect ([1]; TLC 1 (non-specific compounds)): 1%; Min. of label dose of herbicide with effect ([1]; TLC 7 (non-specific compounds)): 10%; Min. visual effect ([3]; at presence of TLC 1 biomarker): 0; Min. visual effect ([3]; at presence of TLC 7 biomarker): 3; Min. visual effect ([4]; at presence of TLC 6 biomarker): 0; Min. visual effect ([4]; at presence of TLC 7 biomarker): 0; Min. visual effect ([5]; at presence of TLC 1 biomarker): 0; Min. visual effect ([5]; at presence of TLC 6 biomarker): 0; Min. of label dose of herbicide with effect ([7]; TLC 6 (lipids and terpens)): 1%
CCC(CC)Nc1c([N+](=O)[O-])cc(C)c(C)c1[N+](=O)[O-] [Pendimethalin],1,1,1,3,0,0,0,0,10,1,–,1,–,1,"Min. visual effect [3, 10]: 0; Min. visual effect ([4]; at presence of TLC 2 biomarker): 0; Min. visual effect [4, 10]: 0; Min. of label dose of herbicide with effect ([6]; TLC 1 (non-specific compounds)): 10%; Min. of label dose of herbicide with effect ([6]; TLC 4d (amino acids)): 1%; Days after exposure (biomarker present) ([8]; TLC 7 (non-specific compounds)): 8, 16 days; Days after exposure (biomarker present) ([8]; TLC 4d (amino acids)): 4, 8, 16, 32 days; Min. of label dose of herbicide with effect ([8]; TLC 4d (amino acids)): 1%"
Bromoxynil,–,–,–,–,–,–,–,–,1,10,1,–,10,–,Min. of label dose of herbicide with effect [9]: 1%; Min. of label dose of herbicide with effect ([6]; TLC 6 (lipids and terpens)): 1%
